Assay type in all cases: cell-based
Holding throughout (conditions): 72 hours

One test has as its target T1, HER2 WT (Ba/F3 cells) (Homo sapiens, UniProt P04626).
T1 construct: expressed in transfected cells; host or cells: Ba/F3
The test can be described thus: MTS assay, Ba/F3 cells, HER2 WT. The method, then: (§1) The IC50 values of the compounds provided herein were measured against kinases in Ba/F3 cells.
(§2) Activities of representative compounds of the present application in inhibiting EGFR and HER2 were tested by MTS assay (abcam®) for Ba/F3 cells. For assays with Ba/F3 cells, 3000 cells were seeded for per well in 96-well plates and were exposed to the indicated compounds with a concentration of 3.3 to 10 μM for 72 hours.
(In general: Formazan colour is commonly taken as a measure of viable cells.)

For a further test, the target named is T2, HER2 YVMA (Ba/F3 cells) (Homo sapiens, UniProt P04626, INS775YVMA).
T2 construct: expressed in transfected cells; host or cells: Ba/F3
T2 sequence (P04626 with tags, fused parts or gaps INS775YVMA): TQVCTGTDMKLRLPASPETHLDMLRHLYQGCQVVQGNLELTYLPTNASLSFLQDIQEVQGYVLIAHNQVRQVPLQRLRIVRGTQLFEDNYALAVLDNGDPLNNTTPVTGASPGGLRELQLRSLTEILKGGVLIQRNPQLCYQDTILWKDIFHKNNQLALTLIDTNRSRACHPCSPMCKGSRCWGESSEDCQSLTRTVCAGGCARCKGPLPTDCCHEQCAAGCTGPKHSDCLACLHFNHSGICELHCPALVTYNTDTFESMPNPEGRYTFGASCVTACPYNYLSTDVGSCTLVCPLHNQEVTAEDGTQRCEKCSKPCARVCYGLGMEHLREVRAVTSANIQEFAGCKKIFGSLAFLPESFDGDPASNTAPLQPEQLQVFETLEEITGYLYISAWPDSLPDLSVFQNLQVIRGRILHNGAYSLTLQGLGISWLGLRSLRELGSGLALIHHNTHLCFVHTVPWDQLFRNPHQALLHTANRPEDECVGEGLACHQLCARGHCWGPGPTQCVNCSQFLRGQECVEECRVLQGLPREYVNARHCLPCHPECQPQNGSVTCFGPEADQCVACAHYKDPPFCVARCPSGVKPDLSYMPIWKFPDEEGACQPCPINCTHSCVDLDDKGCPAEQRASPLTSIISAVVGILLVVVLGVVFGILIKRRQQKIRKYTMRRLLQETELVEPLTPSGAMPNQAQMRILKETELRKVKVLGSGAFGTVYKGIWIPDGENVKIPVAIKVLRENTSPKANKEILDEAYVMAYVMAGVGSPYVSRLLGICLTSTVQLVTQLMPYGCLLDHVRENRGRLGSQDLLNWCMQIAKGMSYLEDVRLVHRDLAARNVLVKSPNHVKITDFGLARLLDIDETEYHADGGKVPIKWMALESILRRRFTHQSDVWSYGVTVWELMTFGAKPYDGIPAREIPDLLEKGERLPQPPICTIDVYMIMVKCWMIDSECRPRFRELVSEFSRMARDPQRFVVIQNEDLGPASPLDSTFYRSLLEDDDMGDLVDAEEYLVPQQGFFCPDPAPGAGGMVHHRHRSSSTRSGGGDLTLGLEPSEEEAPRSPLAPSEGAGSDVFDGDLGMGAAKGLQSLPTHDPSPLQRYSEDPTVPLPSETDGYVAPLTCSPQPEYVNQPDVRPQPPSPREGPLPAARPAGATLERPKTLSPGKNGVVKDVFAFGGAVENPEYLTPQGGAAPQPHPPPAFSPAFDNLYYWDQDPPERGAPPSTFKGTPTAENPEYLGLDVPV
The experiment in a line: MTS assay, Ba/F3 cells, HER2 YVMA. The method, then: as §1, §2

For a further test, the target named is T3, EFGR WT (Ba/F3 cells) (Homo sapiens, UniProt P00533).
T3 construct: expressed in transfected cells; host or cells: Ba/F3
T3 sequence (P00533 25-1210): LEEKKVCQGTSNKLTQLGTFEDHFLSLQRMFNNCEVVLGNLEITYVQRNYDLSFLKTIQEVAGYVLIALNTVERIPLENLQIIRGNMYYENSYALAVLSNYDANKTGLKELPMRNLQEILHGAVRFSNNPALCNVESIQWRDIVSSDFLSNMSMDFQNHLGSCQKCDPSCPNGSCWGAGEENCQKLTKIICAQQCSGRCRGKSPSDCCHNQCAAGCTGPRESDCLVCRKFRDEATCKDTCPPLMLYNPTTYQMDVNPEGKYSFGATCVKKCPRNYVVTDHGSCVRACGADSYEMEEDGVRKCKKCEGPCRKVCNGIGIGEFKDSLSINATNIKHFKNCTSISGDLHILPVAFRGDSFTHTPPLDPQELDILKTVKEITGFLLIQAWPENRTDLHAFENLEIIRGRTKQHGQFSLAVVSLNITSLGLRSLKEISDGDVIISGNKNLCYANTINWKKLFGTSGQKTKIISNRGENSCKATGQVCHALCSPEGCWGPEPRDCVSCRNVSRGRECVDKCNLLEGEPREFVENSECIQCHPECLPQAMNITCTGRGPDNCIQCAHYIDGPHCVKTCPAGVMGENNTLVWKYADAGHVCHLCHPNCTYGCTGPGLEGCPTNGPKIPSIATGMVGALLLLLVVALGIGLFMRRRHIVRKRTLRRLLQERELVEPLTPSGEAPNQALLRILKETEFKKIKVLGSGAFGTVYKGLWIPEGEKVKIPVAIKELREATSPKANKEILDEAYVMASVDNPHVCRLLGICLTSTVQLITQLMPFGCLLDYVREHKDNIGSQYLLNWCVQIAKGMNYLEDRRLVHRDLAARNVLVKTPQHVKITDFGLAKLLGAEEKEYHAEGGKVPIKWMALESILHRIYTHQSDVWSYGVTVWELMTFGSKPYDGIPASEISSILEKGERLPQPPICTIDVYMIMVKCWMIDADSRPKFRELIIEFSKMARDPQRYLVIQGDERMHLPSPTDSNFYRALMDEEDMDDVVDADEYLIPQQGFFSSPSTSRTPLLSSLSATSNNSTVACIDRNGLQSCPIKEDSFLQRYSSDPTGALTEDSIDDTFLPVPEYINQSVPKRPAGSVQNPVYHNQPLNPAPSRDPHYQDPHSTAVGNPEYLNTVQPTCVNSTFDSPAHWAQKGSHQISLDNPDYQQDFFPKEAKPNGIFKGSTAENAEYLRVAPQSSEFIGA
The test can be described thus: MTS assay, Ba/F3 cells, EFGR WT. The method, then: as §1, §2

The target in the next test is T4, EFGR SVD (Ba/F3 cells) (Homo sapiens, UniProt P00533, INS770SVD).
T4 construct: expressed in transfected cells; host or cells: Ba/F3
T4 sequence (P00533 with tags, fused parts or gaps INS770SVD): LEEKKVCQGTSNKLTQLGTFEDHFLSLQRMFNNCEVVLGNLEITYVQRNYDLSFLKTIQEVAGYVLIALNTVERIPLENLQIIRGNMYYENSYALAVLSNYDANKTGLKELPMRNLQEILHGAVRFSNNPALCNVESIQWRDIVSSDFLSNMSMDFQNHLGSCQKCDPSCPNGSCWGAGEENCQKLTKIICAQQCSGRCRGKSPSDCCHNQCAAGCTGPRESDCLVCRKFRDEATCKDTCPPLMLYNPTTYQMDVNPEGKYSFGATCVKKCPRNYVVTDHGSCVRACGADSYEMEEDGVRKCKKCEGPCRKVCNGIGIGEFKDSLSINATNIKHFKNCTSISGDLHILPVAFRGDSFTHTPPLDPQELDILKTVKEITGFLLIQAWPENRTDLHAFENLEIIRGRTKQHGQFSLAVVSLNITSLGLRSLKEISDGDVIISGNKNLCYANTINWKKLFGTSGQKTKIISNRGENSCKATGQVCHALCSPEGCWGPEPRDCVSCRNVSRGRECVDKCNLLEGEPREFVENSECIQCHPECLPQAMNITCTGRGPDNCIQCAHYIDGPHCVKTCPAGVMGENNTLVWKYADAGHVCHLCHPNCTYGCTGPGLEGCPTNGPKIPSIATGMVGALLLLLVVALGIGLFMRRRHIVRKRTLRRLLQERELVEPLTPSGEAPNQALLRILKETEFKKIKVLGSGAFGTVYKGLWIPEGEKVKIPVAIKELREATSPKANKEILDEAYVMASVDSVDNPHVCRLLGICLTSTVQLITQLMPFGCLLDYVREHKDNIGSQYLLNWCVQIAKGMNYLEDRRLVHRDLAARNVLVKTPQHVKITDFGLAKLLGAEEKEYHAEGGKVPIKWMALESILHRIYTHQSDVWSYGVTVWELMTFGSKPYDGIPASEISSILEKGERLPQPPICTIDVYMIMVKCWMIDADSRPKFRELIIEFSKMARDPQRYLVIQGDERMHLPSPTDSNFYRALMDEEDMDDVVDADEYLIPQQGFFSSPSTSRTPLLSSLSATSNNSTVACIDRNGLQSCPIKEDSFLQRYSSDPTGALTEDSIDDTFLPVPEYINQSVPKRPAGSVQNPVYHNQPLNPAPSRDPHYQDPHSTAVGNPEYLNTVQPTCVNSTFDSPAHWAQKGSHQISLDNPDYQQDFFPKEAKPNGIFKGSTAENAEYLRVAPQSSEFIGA
The experiment in a line: MTS assay, Ba/F3 cells, EFGR SVD. The protocol: as §1, §2

The next test addresses T5, EFGR ASV (Ba/F3 cells) (Homo sapiens, UniProt P00533, INS769ASV).
T5 construct: expressed in transfected cells; host or cells: Ba/F3
The test can be described thus: MTS assay, Ba/F3 cells, EFGR ASV. The method, then: as §1, §2

The target in another test is T6, HER2 GSP (Ba/F3 cells) (Homo sapiens, UniProt P04626, INS780GSP).
T6 construct: expressed in transfected cells; host or cells: Ba/F3
The test can be described thus: MTS assay, Ba/F3 cells, HER2 GSP. The method, then:
as §1, §2

Molecules are shown by their SMILES.

T1 sequence (P04626 23-1255): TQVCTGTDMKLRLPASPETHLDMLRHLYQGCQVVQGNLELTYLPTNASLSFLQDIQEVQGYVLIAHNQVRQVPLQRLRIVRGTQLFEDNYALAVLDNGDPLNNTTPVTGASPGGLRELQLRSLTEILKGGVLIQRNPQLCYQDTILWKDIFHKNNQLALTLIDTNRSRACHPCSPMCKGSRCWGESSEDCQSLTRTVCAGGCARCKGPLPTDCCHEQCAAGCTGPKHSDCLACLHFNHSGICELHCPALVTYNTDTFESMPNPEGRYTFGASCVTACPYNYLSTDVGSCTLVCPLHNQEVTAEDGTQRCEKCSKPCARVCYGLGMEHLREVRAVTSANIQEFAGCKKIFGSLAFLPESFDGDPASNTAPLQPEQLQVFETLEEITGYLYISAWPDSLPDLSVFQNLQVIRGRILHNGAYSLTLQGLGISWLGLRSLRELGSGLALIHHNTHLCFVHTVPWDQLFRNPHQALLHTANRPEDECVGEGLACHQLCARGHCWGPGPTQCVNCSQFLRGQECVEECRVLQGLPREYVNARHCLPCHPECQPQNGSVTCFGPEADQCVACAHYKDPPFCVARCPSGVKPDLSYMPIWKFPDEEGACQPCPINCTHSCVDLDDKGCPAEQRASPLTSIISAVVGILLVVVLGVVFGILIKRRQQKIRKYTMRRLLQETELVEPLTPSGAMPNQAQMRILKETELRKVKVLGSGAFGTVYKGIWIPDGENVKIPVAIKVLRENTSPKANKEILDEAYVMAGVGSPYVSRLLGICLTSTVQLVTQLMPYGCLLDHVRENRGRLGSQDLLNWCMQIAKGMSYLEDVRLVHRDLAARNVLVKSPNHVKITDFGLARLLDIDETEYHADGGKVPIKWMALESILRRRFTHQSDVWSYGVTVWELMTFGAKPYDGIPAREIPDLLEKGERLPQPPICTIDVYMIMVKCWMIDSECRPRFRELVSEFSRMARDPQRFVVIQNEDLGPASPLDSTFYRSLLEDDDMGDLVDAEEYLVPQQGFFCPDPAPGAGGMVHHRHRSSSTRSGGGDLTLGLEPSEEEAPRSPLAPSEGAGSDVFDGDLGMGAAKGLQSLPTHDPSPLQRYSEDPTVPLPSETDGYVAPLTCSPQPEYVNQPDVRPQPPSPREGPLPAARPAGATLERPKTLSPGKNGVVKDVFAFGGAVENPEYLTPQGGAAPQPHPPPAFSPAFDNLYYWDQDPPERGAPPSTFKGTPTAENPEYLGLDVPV

`C=CC(=O)N1CCC[C@@H](n2nc(C(=O)Nc3ccc(-n4ccnc4)c(C)c3)c3c(N)ncnc32)C1` [Compound 10]: the IC50 (as a rule, the concentration that gives 50% inhibition) is 3.43 µM against HER2 WT (Ba/F3 cells) and 0.58 µM against HER2 YVMA (Ba/F3 cells).

As for `C=CC(=O)N1CCC[C@@H](n2nc(C(=O)Nc3ccc(CN4CCn5ccnc5C4)c(C)c3)c3c(N)ncnc32)C1` [Compound 9], the IC50 against EFGR WT (Ba/F3 cells) turned out to be 7.92 µM; at EFGR SVD (Ba/F3 cells) it was 5.59 µM; on EFGR ASV (Ba/F3 cells), 1.98 µM; against HER2 WT (Ba/F3 cells) it was 2.63 µM; against HER2 YVMA (Ba/F3 cells) it was 1.38 µM; against HER2 GSP (Ba/F3 cells), 1.29 µM.

With `C=CC(=O)N1CCC[C@@H](n2nc(C(=O)Nc3ccc(Cn4ccnc4)c(C)c3)c3c(N)ncnc32)C1` [Compound 4], the IC50 at EFGR WT (Ba/F3 cells) was found to be 7.16 µM; at EFGR SVD (Ba/F3 cells), 6.04 µM; against EFGR ASV (Ba/F3 cells), 4.53 µM; against HER2 WT (Ba/F3 cells), 3.85 µM; against HER2 YVMA (Ba/F3 cells) it was 3.16 µM; against HER2 GSP (Ba/F3 cells) it was 1.44 µM.

As to `C=CC(=O)N1CCC[C@@H](n2nc(C(=O)Nc3ccc(Oc4ccn5ncnc5c4)c(C)c3C)c3c(N)ncnc32)C1` [Compound 1, (R)—N—(4-([1,2,4]triazolo[1,5-a]pyridin-7-yloxy)-2,3-dimethylphenyl)-1-(1-acryloylpiperidin-3-yl)-4-amino-1H-pyrazolo[3,4-d]pyrimidine-3-carboxamide], the IC50 at EFGR WT (Ba/F3 cells) stood at 1.38 µM; on EFGR SVD (Ba/F3 cells), 2.62 µM; against EFGR ASV (Ba/F3 cells) it was 1.81 µM; on HER2 WT (Ba/F3 cells) it was 0.111 µM; against HER2 YVMA (Ba/F3 cells), 0.0322 µM; against HER2 GSP (Ba/F3 cells), 0.0567 µM.

For the molecule `C=CC(=O)N1CCC[C@@H](n2nc(C(=O)Nc3ccc(Cn4cncn4)c(C)c3)c3c(N)ncnc32)C1` [Compound 11], the IC50 against EFGR WT (Ba/F3 cells) was > 10 µM; against HER2 WT (Ba/F3 cells) it was 5.96 µM; against HER2 YVMA (Ba/F3 cells) it was 1.33 µM.

For `C=CC(=O)N1CCC[C@@H](n2nc(C(=O)Nc3ccc(CN4CCn5ncnc5C4)c(C)c3)c3c(N)ncnc32)C1` [Compound 8], the IC50 was found to be 9.46 µM on EFGR WT (Ba/F3 cells); 6.75 µM against EFGR SVD (Ba/F3 cells); 4.27 µM on EFGR ASV (Ba/F3 cells); 3.24 µM on HER2 WT (Ba/F3 cells); 1.85 µM against HER2 YVMA (Ba/F3 cells); 1.39 µM at HER2 GSP (Ba/F3 cells).

Take `C=CC(=O)N1CCC[C@@H](n2nc(C(=O)Nc3cc(C)cc(CC(=O)N(C)C)c3)c3c(N)ncnc32)C1` [Compound 5]: the IC50 against EFGR WT (Ba/F3 cells) was found to be 8.96 µM; against EFGR SVD (Ba/F3 cells), 7.62 µM; against EFGR ASV (Ba/F3 cells) it was 5.72 µM; at HER2 WT (Ba/F3 cells) it was 4.08 µM; against HER2 YVMA (Ba/F3 cells) it was 4.47 µM; on HER2 GSP (Ba/F3 cells), 2.39 µM.

With `C=CC(=O)N1CCC[C@@H](n2nc(C(=O)Nc3ccc(C(=O)N4CCn5ncnc5C4)c(C)c3)c3c(N)ncnc32)C1` [Compound 7], the IC50 against EFGR WT (Ba/F3 cells) amounted to 8.79 µM; against EFGR SVD (Ba/F3 cells) it was 7.72 µM; against EFGR ASV (Ba/F3 cells), 6.02 µM; at HER2 WT (Ba/F3 cells), 6.3 µM; at HER2 YVMA (Ba/F3 cells) it was 8.84 µM; at HER2 GSP (Ba/F3 cells), 6.29 µM.

For the molecule `C=CC(=O)N1CCC[C@@H](n2nc(C(=O)Nc3ccc(Oc4ccn5ncnc5c4)c(Cl)c3)c3c(N)ncnc32)C1` [Compound 3, (R)—N—(4-([1,2,4]triazolo[1,5-a]pyridin-7-yloxy)-3-chlorophenyl)-1-(1-acryloylpiperidin-3-yl)-4-amino-1H-pyrazolo[3,4-d]pyrimicline-3-carboxamide], the IC50 on EFGR WT (Ba/F3 cells) was 2.11 µM; on EFGR SVD (Ba/F3 cells), 2.61 µM; on EFGR ASV (Ba/F3 cells), 1.46 µM; on HER2 WT (Ba/F3 cells), 0.0981 µM; on HER2 YVMA (Ba/F3 cells), 0.0455 µM; on HER2 GSP (Ba/F3 cells) it was 0.0786 µM.

In the case of `C=CC(=O)N1CCC[C@@H](n2nc(C(=O)Nc3ccc(Oc4ccn5ncnc5c4)c(C)c3)c3c(N)ncnc32)C1` [Compound 2, (R)—N—(4-([1,2,4]triazolo[1,5-a]pyridin-7-yloxy)-3-methylphenyl)-1-(1-acryloylpiperidin-3-yl)-4-amino-1H-pyrazolo[3,4-d]pyrimidine-3-carboxamide], the IC50 on EFGR WT (Ba/F3 cells) worked out at 3.27 µM; on EFGR SVD (Ba/F3 cells), 3.98 µM; against EFGR ASV (Ba/F3 cells) it was 2.24 µM; against HER2 WT (Ba/F3 cells), 0.193 µM; against HER2 YVMA (Ba/F3 cells) it was 0.0559 µM; against HER2 GSP (Ba/F3 cells), 0.0958 µM.

`C=CC(=O)N1CCC[C@@H](n2nc(C(=O)Nc3ccc(C(=O)N4CCn5ccnc5C4)c(C)c3)c3c(N)ncnc32)C1` [Compound 6]: the IC50 against EFGR WT (Ba/F3 cells) turned out to be 9.42 µM; on EFGR SVD (Ba/F3 cells), 7.84 µM; on EFGR ASV (Ba/F3 cells), 6.81 µM; against HER2 WT (Ba/F3 cells), 5.79 µM; against HER2 YVMA (Ba/F3 cells), 7.56 µM; against HER2 GSP (Ba/F3 cells) it was 5.64 µM.

`C=CC(=O)N1CCC[C@@H](n2nc(C(=O)Nc3ccc(CC(=O)N(C)C)c(C)c3C)c3c(N)ncnc32)C1` [TAS0728, reference compound]: the IC50 stood at 0.921 µM against EFGR WT (Ba/F3 cells); 4.48 µM against EFGR SVD (Ba/F3 cells); 3.82 µM at EFGR ASV (Ba/F3 cells); 0.164 µM on HER2 WT (Ba/F3 cells); 0.206 µM on HER2 YVMA (Ba/F3 cells); 0.0643 µM on HER2 GSP (Ba/F3 cells).

The values above are taken from patent US20230295167A1, “POTENT AND SELECTIVE INHIBITORS OF HER2” (DANA-FARBER CANCER INSTITUTE, INC., priority 2020, published 2023).
